Assay results from patent US10307410B2, “Mcl-1 modulating compounds for cancer treatment” (CENTRE REGIONAL DE LUTTE CONTRE LE CANCER FRANCOIS BACLESSE, priority 2014, dated 2019).
“Also recorded” adds a separate entry of the source.

Key:
[1] = test system: IGROV1-R10 chemoresistant ovarian cancer cells; assay: Pyridoclax / ABT-737 association, apoptotic cell death; format: cell-based; conditions: IGROV1-R10, single agent
Description: (§1) FIG. 4 represents the effect of the association of Pyridoclax with ABT-737 on chemoresistant ovarian cancer cells IGROV1-R10 (top) and SKOV3 (bottom). Cells were concomitantly (A, E) or sequentially (B) exposed to 25 μM Pyridoclax and 5 μM ABT-737, and cellular effects were assessed either longitudinally (A, B, E) or after 24 h (C, D, F). [A, B, E] real time cellular activity assessed by impedancmetry (xCELLigence technology), after concomitant exposure (A, E) or sequential exposure (B; 24 h Pyridoclax, then ABT-737). [C]: Cellular morphology and DNA content histograms after a 24 h concomitant exposure. [D and F]: PARP and caspase 3 cleavage after a 24 h concomitant exposure.
(§2) Adherent and floating cells were pooled, washed with 1×PBS and centrifuged at 200 g for 5 min before staining by Annexin V, propidium iodide or both, as recommended by the manufacturer (Roche Diagnostic, Indianapolis, USA). Briefly, 100 μl of Annexin V—Flit or propidium iodide or both were added on the cells pellet (10^6 cells) and incubated 15 minutes at room temperature in obscurity. 500 μl of sample buffer was then added on the suspensions that were thereafter analyzed using a Gallios flow cytometer (Beckman Coulter, Roissy, France) and cell cycle distribution was determined using Kaluza acquisition software (Beckman Coulter).
(§3) Cells were rinsed with ice-cold PBS, suspended in a lysis buffer [RIPA:NaCl 150 mM, Tris (pH 8) 50 mM, Triton X100 1%, PMSF 4 mM, EDTA 5 mM, NaF 10 mM, NaPPi 10 mM, Na3OV4 1 mM, aprotinin 0.5 μl/ml and 4.6 ml ultra pure water] and incubated on ice for 30 minutes. Lysates were collected after centrifugation (13200 g, 10 min, 4° C.) and protein concentrations were determined using the Bradford assay (Bio-Rad, Hercules, USA). 20 μg of protein were separated by SDS-PAGE on a 4-12% gradient polyacrylamide gel (Invitrogen, Cergy-Pontoise, France) and transferred to Hybond-PVDF membranes (Amersham, Orsay, France). […]

Mcl-1/Puma interaction = target: T1, Mcl-1/Puma interaction (Homo sapiens, UniProt Q07820); assay: BRET assay, Mcl-1/Puma interaction; format: cell-based; conditions: BRET in Hela cells, 10 μM, 16 hours
T1 construct: expressed in transfected cells; host or cells: HeLa cells
Description: (§4) Hela cells were seeded on 6-well plates and transfected with 200 ng/well of plasmid pRLuc-Bax, pRLuc-Puma or pRLuc-Noxa coding for BRET donors and 1 µg/well of peYFP-Bcl-xL or peYFP-Mcl-1 coding for BRET acceptors (or with pCMV-Bcl-xL or pCMV-Mcl-1 for control). Twenty-four hours after transfection, cells were trypsinized and re-seeded into white 96 well plate flat bottom, incubated for another day, and then treated with drugs for 16 hours at 10 μM. Light emission at 485 nm and 530 nm was measured consecutively using the Mithras fluorescence-luminescence detector LB 940 (Berthold) after adding the luciferase substrate, coelenterazine H (Uptima) at a final concentration of 5 μM. BRET ratios were calculated as described [Terrillon et al. (2003) Mol Endocrinol 17, 677-691, Vo et al. (2012) Eur J Med Chem., 286-93].

[2] = test system: SKOV3 chemoresistant ovarian cancer cells; assay: Pyridoclax / ABT-737 association, apoptotic cell death; format: cell-based, human; conditions: SKOV3, single agent
Description: as §1, §2, §3

Noxa/Mcl-1 interaction = target: T2, Noxa/Mcl-1 interaction (Homo sapiens, UniProt Q07820); assay: BRET assay, Noxa/Mcl-1 interaction; format: cell-based; conditions: BRET in Hela cells, 10 μM, 16 hours
T2 construct: expressed in transfected cells; host or cells: HeLa cells
Description: as §4

T1 sequence (Q07820 whole entry): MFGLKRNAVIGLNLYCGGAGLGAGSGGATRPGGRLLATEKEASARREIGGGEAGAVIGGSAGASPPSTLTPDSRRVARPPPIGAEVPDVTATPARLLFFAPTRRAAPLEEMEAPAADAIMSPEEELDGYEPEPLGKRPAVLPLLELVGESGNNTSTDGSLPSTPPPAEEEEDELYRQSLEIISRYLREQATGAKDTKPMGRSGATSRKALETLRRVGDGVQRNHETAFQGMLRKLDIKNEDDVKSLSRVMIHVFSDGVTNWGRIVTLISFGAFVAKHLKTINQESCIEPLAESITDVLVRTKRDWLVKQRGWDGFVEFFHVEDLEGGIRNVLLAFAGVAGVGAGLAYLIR
T2 sequence (Q07820 whole entry): as above

CN(C)CC[C@H](CSc1ccccc1)Nc1ccc(S(=O)(=O)NC(=O)c2ccc(N3CCN(Cc4ccccc4-c4ccc(Cl)cc4)CC3)cc2)cc1[N+](=O)[O-] [ABT-737, 4-[4-[[2-(4-chlorophenyl)phenyl]methyl]piperazin-1-yl]-N-[4-[[(2R)-4-(dimethylamino)-1-phenylsulfanylbutan-2-yl]amino]-3-nitrophenyl]sulfonylbenzamide, reference compound]
cell death as single agent [1]: neither ABT-737 nor Pyridoclax induced cell death as single agents | effect on Mcl-1/Puma interaction (Mcl-1/Puma interaction): not able to modify these interactions; also recorded: not able to modify this interaction | cell death as single agent [2]: neither ABT-737 nor Pyridoclax induced cell death as single agents | effect on Noxa/Mcl-1 interaction (Noxa/Mcl-1 interaction): not able to modify these interactions
